According to US20260347319A1, “YAP/TAZ-TEAD ONCOPROTEINS INHIBITORS” (BridGene Biosciences, Inc., priority 2022, published 2026):

System: TEAD1
Experiment: MCF-7 TEAD1-luciferase reporter assay (MCF7-TEAD-Luc)
Type: cell-based
Details: MCF7 cells, overnight; for IC50: Homo sapiens; for TEAD1-Luc MCF7: Max Inhibition: % of DMSO-treated control
Description: The ability of compounds to inhibit TEAD-dependent transcription was assessed in the MCF7-TEAD-Luc reporter assay (BPS #60618). Cells were seeded at 10,000 cells in 200 μL per well into white wall, clear bottom 96-well plates (Corning #3610) and incubated at 37° C. for 24 hours, then treated with serial diluted compounds overnight, and luciferase signal was measured using the ONE-Step Luciferase Assay System (BPS #60690) using an EnSight Multimode plate reader (PerkinElmer, model #MLDHH34000000, integration time 100 ms) with Kaleido 3.0. software. For data analysis, dose-dependent curves were plotted as “% inhibition” (% of DMSO-treated control wells), and were fitted by four-parametric model in GraphPad Prism to obtain IC50 values.

Row | Compound | IC50 [nM] | TEAD1-Luc MCF7: Max Inhibition
1 | C=CC(=O)N1CC[C@](O)(/C=C/c2ccc(C(F)(F)F)cc2)C1 (single isomer, unassigned) [Example 27, (S*,E)-1-(3-hydroxy-3-(4-(trifluoromethyl)styryl)pyrrolidin-1-yl)prop-2-en-1-one] | 100 to 500 | A (A ≥ 75%)
2 | C=CC(=O)N1CC[C@@](O)(/C=C/c2ccc(C(F)(F)F)cc2)C1 (single isomer, unassigned) [Example 28, (R*,E)-1-(3-hydroxy-3-(4-(trifluoromethyl)styryl)pyrrolidin-1-yl)prop-2-en-1-one] | 10 to 100 | B (75% > B ≥ 50%)
3 | C=CC(=O)N1CC[C@@](C)(/C=C/c2ccc(C(F)(F)F)cc2)C1 (single isomer, unassigned) [Example 29, 1-[(3S*)-3-methyl-3-{2-[4-(trifluoromethyl)phenyl]ethenyl}pyrrolidin-1-yl]prop-2-en-1-one] | 10 to 100 | A (A ≥ 75%)
4 | C=CC(=O)N1CC[C@](C)(/C=C/c2ccc(C(F)(F)F)cc2)C1 (single isomer, unassigned) [Example 30, 1-[(3R*)-3-methyl-3-{2-[4-(trifluoromethyl)phenyl]ethenyl}pyrrolidin-1-yl]prop-2-en-1-one] | 10 to 100 | A (A ≥ 75%)
5 | C=CC(=O)N1CC(/C=C/c2ccc(C(F)(F)F)cc2)C(C)(C)C1 (single isomer, unassigned) [Example 33] | 100 to 500 | A (A ≥ 75%)
6 | C=CC(=O)N1CC[C@@H](/C=C\c2cccc(C(F)(F)F)c2)C1 (single isomer, unassigned) [Example 41, (S*,Z)-1-(3-(3-(trifluoromethyl)styryl)pyrrolidin-1-yl)prop-2-en-1-one] | 10 to 100 | A (A ≥ 75%)
7 | C=CC(=O)N1CC[C@H](/C=C\c2cccc(C(F)(F)F)c2)C1 (single isomer, unassigned) [Example 42, (R*,Z)-1-(3-(3-(trifluoromethyl)styryl)pyrrolidin-1-yl)prop-2-en-1-one] | 100 to 500 | A (A ≥ 75%)
8 | C=CC(=O)N1CC[C@H](/C=C/c2cccc(C(F)(F)F)c2)C1 (single isomer, unassigned) [Example 43, (R*,E)-1-(3-(3-(trifluoromethyl)styryl)pyrrolidin-1-yl)prop-2-en-1-one] | 100 to 500 | B (75% > B ≥ 50%)
9 | C=CC(=O)N1CC[C@@H](/C=C/c2cccc(C(F)(F)F)c2)C1 (single isomer, unassigned) [Example 44, (S*,E)-1-(3-(3-(trifluoromethyl)styryl)pyrrolidin-1-yl)prop-2-en-1-one] | 10 to 100 | A (A ≥ 75%)
10 | C=CC(=O)N1CC[C@H](C#Cc2cccc(C(F)(F)F)c2)C1 (single isomer, unassigned) [Example 56, (R*)-1-(3-((3-(trifluoromethyl)phenyl)ethynyl)pyrrolidin-1-yl)prop-2-en-1-one] | 10 to 100 | A (A ≥ 75%)
11 | C=CC(=O)N1CC[C@@H](C#Cc2cccc(C(F)(F)F)c2)C1 (single isomer, unassigned) [Example 57, (S*)-1-(3-((3-(trifluoromethyl)phenyl)ethynyl)pyrrolidin-1-yl)prop-2-en-1-one] | 10 to 100 | A (A ≥ 75%)
12 | C=CC(=O)N1CC[C@@](C#Cc2ccc(C(F)(F)F)cc2)(OC)C1 (single isomer, unassigned) [Example 58, (S*)-1-(3-methoxy-3-((4-(trifluoromethyl)phenyl)ethynyl)pyrrolidin-1-yl)prop-2-en-1-one] | ≤ 10 | B (75% > B ≥ 50%)
13 | C=CC(=O)N1CC[C@](F)(C#Cc2ccc(C(F)(F)F)cc2)C1 (single isomer, unassigned) [Example 62, (S*)-1-(3-fluoro-3-((4-(trifluoromethyl)phenyl)ethynyl)pyrrolidin-1-yl)prop-2-en-1-one] | 10 to 100 | B (75% > B ≥ 50%)
14 | C=CC(=O)N1CC[C@@](F)(C#Cc2ccc(C(F)(F)F)cc2)C1 (single isomer, unassigned) [Example 63, (R*)-1-(3-fluoro-3-((4-(trifluoromethyl)phenyl)ethynyl)pyrrolidin-1-yl)prop-2-en-1-one] | 10 to 100 | A (A ≥ 75%)
15 | C=CC(=O)N1CC[C@](O)(C#Cc2ccc(C(F)(F)F)cc2)C1 (single isomer, unassigned) [Example 64, (S*)-1-(3-hydroxy-3-((4-(trifluoromethyl)phenyl)ethynyl)pyrrolidin-1-yl)prop-2-en-1-one] | 10 to 100 | A (A ≥ 75%)
16 | C=CC(=O)N1CC[C@@](O)(C#Cc2ccc(C(F)(F)F)cc2)C1 (single isomer, unassigned) [Example 65, (R*)-1-(3-hydroxy-3-((4-(trifluoromethyl)phenyl)ethynyl)pyrrolidin-1-yl)prop-2-en-1-one] | 100 to 500 | A (A ≥ 75%)
17 | C=CC(=O)N1CC[C@H](C#Cc2ccc(C(F)(F)F)cc2)C1 (single isomer, unassigned) [Example 66, (R*)-1-(3-((4-(trifluoromethyl)phenyl)ethynyl)pyrrolidin-1-yl)prop-2-en-1-one] | 10 to 100 | A (A ≥ 75%)
18 | C=C(F)C(=O)N1CC[C@@H](/C=C/c2ccc(C(F)(F)F)cc2)C1 (single isomer, unassigned) [Example 68] | 100 to 500 | B (75% > B ≥ 50%)
19 | C=C(F)C(=O)N1CC[C@H](/C=C/c2ccc(C(F)(F)F)cc2)C1 (single isomer, unassigned) [Example 69] | 100 to 500 | B (75% > B ≥ 50%)
20 | C=CC(=O)N1C[C@H](Nc2ncccn2)[C@@H](/C=C/c2ccc(C(F)(F)F)cc2)C1 (single isomer, unassigned) [Example 84] | 10 to 100 | A (A ≥ 75%)
21 | C=CC(=O)N1CCC(/C=C/Cc2ccc(C(F)(F)F)cc2)C1 (single isomer, unassigned) [Example 88, (E)-1-(3-(3-(4-(trifluoromethyl)phenyl)prop-1-en-1-yl)pyrrolidin-1-yl)prop-2-en-1-one] | ≤ 10 | B (75% > B ≥ 50%)
22 | C=CC(=O)N1CCC(/C=C\Cc2ccc(C(F)(F)F)cc2)C1 (single isomer, unassigned) [Example 89, (Z)-1-(3-(3-(4-(trifluoromethyl)phenyl)prop-1-en-1-yl)pyrrolidin-1-yl)prop-2-en-1-one] | 10 to 100 | A (A ≥ 75%)
23 | C=CC(=O)N1CCC(/C=C\C(C)(C)c2ccc(C(F)(F)F)cc2)C1 (single isomer, unassigned) [Example 91, (Z)-1-(3-(3-methyl-3-(4-(trifluoromethyl)phenyl)but-1-en-1-yl)pyrrolidin-1-yl)prop-2-en-1-one] | > 500 | B (75% > B ≥ 50%)
24 | C=CC(=O)N1CCC(/C=C/C(C)(C)c2ccc(C(F)(F)F)cc2)C1 (single isomer, unassigned) [Example 92, (E)-1-(3-(3-methyl-3-(4-(trifluoromethyl)phenyl)but-1-en-1-yl)pyrrolidin-1-yl)prop-2-en-1-one] | > 500 | B (75% > B ≥ 50%)
